According to patent US9144595B2, “APLs for treating arthritis” (University of Tennessee Research Foundation, priority 2009, dated 2015):

How the values were obtained:
[1] = tested on: splenocytes of DR1 transgenic mice; assay: Oral APL A12: IFNγ production by cultured splenocytes of DR1 transgenic mice; type: in vivo, mouse
[2] = tested on: Peyer's Patch cells of DR1 TCRtg+/+ mice; assay: Oral APL A12: IL-17 and IL-10 in cultures of Peyer's Patch cells of DR1 TCRtg+/+ mice; type: in vivo, mouse
[3] = tested on: patients with recent onset of type 1 diabetes mellitus; settings: IFNγ and IL-5 ELISPOT, weeks 0-26; cited from earlier work
patients with RA = settings: cited from earlier work
[4] = tested on: murine models of oral tolerance; assay: Murine models of oral tolerance; settings: mouse, in vivo
Excerpt: A form of CII based therapy has been tried in patients with RA and juvenile RA by administering intact native chick or bovine CII to patients. Seven trials of treatment with oral CII have been reported including two of our own. […] Most patients in these studies also received NSAIDs which block oral tolerance and systemic tolerance. The use of NSAIDS might have been responsible for the mixed results of oral CII in RA. […] Furthermore, we have applied these crucial data in designing oral tolerance trials in humans. We can down regulate with oral CII, PBMC production of IFNγ to α1(II) in RA patients who take NSAIDS plus misoprostol and/or DMARDS and anti-TNFα therapies. Oral administration of low dose antigen generates regulatory T cells, which act in the respective microenvironment in a non-antigen specific manner by producing down-regulatory cytokines such as IL4, IL10 and TGFbeta, a Th2/Th3 cytokine pattern.

DR1 Transgenic mice = assay: Effect of A12 on CIA in DR1 Transgenic mice (CII plus A12; intravenous A12 after CII-immunization); type: in vivo, mouse
Procedure: Assuming that CII263-270 was key to developing immunity to the intact CII molecule, a number of analog peptides where amino acids within this small segment were substituted with those found in the corresponding sites of nonarthritogenic type I collagen were prepared and tested. […] The APL A12 developed for this study has the following amino acid sequence: LGPKGQTGEBG[IAGNKGDQGPK]GEBGPA (SEQ ID NO: 3) where B=hydroxproline. The core determinant of human CII263-270 is bracketed. The underlined residues are those substituted to produce APL A12. The residues amino terminal and carboxy terminal to the core determinant is from the normal human CII sequence.

[5] = mice gavaged with 50 μg CII263-270 9 times over 2 weeks, cells cultured with PBS
[6] = mice gavaged with 50 μg CII263-270, cells cultured with APL A12 50 μg/ml
[7] = mice gavaged with 50 μg CII263-270, cells cultured with CII263-270 50 μg/ml
[8] = mice gavaged with PBS, cells cultured with CII263-270 50 μg/ml

Molecule: FKGEQGPK [CII263-270, reference compound]
- IFNγ Levels in Splenocyte Culture ([1]; mice gavaged with 50 μg CII263-270 8 times over 2 weeks, splenocytes cultured with PBS): 68 ± 85 pg/mL
- IFNγ Levels in Splenocyte Culture ([1]; mice gavaged with 50 μg CII263-270, splenocytes cultured with APL A12 50 μg/ml): 80 ± 52 pg/mL
- IFNγ Levels in Splenocyte Culture ([1]; mice gavaged with 50 μg CII263-270, splenocytes cultured with CII263-270 50 μg/ml): 124 ± 84 pg/mL
- IFNγ Levels in Splenocyte Culture ([1]; mice gavaged with PBS, splenocytes cultured with CII263-270 50 μg/ml): 280 ± 222 pg/mL
- II-10 Levels in Peyer's Patch Cultures [2, 5]: 15 pg/mL
- IL-17 Levels in Peyer's Patch Cultures [2, 5]: 11 pg/mL
- II-10 Levels in Peyer's Patch Cultures [2, 6]: 35 pg/mL
- IL-17 Levels in Peyer's Patch Cultures [2, 6]: 62 pg/mL
- II-10 Levels in Peyer's Patch Cultures [2, 7]: 15 pg/mL
- IL-17 Levels in Peyer's Patch Cultures [2, 7]: 256 pg/mL
- II-10 Levels in Peyer's Patch Cultures [2, 8]: 45 pg/mL
- IL-17 Levels in Peyer's Patch Cultures [2, 8]: 30 pg/mL

Molecule: SHLVEALALVAGERG [NBI-6024]
- PBMC ELISPOT responses to B(9-23) epitope and NBI-6024 [3]: induced, predominantly Th2 responses

Molecule: [O]QKRAAYDQ[U]YGHAAFE (QKRAAYDQYGHAAFE; Synthetic peptide dnaJP1) [synthetic peptide derived from bacterial heat shock protein]
- cytokine profile (patients with RA; CD3+ cells, oral, six months): switch in the cytokine profile from Th1 to Th2
- tolerability (patients with RA; oral 0.25, 2.5 and 25 mg per day for six months): well tolerated and no significant side effects occurred
- worsening of arthritis (patients with RA; oral, six months): no worsening of arthritis

Molecule: etanercept
- oral tolerance induction [4]: do not block oral tolerance induction

B1: Ova: control antigen given intravenously in Table I (protein, UniProt P01012 2-386, looked up)
Ovalbumin: GSIGAASMEFCFDVFKELKVHHANENIFYCPIAIMSALAMVYLGAKDSTRTQINKVVRFDKLPGFGDSIEAQCGTSVNVHSSLRDILNQITKPNDVYSFSLASRLYAEERYPILPEYLQCVKELYRGGLEPINFQTAADQARELINSWVESQTNGIIRNVLQPSSVDSQTAMVLVNAIVFKGLWEKAFKDEDTQAMPFRVTEQESKPVQMMYQIGLFRVASMASEKMKILELPFASGTMSMLVLLPDEVSGLEQLESIINFEKLTEWTSSNVMEERKIKVYLPRMKMEEKYNLTSVLMAMGITDVFSSSANLSGISSAESLKISQAVHAAHAEINEAGREVVGSAEAGVDAASVSEEFRADHPFLFCIKHIATNAVLFFGRCVSP
- Antibodies to CII (DR1 Transgenic mice; 1 mg total i.v.): 42 ± 10
- Incidence (DR1 Transgenic mice; arthritis incidence, 1 mg total i.v. on days 10, 12, 14 after CII-immunization): 7/10
